Laboratory results reported in US20240124442A1, “TRICYCLIC-AMIDO-BICYCLIC PRMT5 INHIBITORS” (AMGEN INC., priority 2021, published 2024).

Columns and labels:
HCT116 MTAP null cells = test: HCT116 MTAP null cell line proliferation / cell viability (CellTiter-Glo, 6 days); assay type: cell-based; conditions: 144 h; HCT116 MTAP null cells, 6 days treatment, CellTiter-Glo cell viability; read-out: HCT-116 MTAP null IC50
Summary of the method: (§1)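 Isogenic HCT116 pair (parental and MTAP-knockout) in RPMI 1640 + 10% FBS, treated 6 days with 8–9-point 1:3 dilutions from 1 or 10 μM top, or 22-point 1:2 dilutions from 10 or 50 μM top. Viability by CellTiter-Glo luminescence; IC50 from 4-parameter logistic fit or sigmoidal fit with Hill slope fixed at −1.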

HCT116 WT cells = test: HCT116 WT (parent) cell line proliferation / cell viability (CellTiter-Glo, 6 days); assay type: cell-based; conditions: Homo sapiens, HCT-116, 144 h, 6 days treatment
Summary of the method: as §1

SMILES | IC50 (HCT116 MTAP null cells) | IC50 (HCT116 WT cells)
Cn1ncc2c(N)nc3ccc(C(=O)N(CC4CC4)[C@H]4COCc5nc(C(F)(F)F)ccc54)cc3c21 (single isomer, unassigned) [Example 594] | 228 nM | 19400 nM
CN(C(=O)c1cc2c(cc1F)nc(N)c1cnn(C)c12)[C@H]1COCc2cc(C#N)ccc21 (single isomer, unassigned) [Example 596] | 185 nM | 17100 nM
CN(C(=O)c1cc2c(cc1F)nc(N)c1cnn(C)c12)[C@H]1COCc2c1ccc(F)c2F (single isomer, unassigned) [Example 598] | 416 nM | 10100 nM
C[C@H]1OC[C@H](N(C)C(=O)c2ccc3nc(N)c4c(cnn4C)c3c2)c2ccc(C(F)(F)F)cc21 (single isomer, unassigned) [Example 602] | 4260 nM | 21300 nM
C[C@@H]1OC[C@@H](N(C)C(=O)c2ccc3nc(N)c4c(cnn4C)c3c2)c2ccc(C(F)(F)F)cc21 (single isomer, unassigned) [Example 603] | 327 nM | 16000 nM
C[C@@H]1OC[C@H](N(C)C(=O)c2ccc3nc(N)c4c(cnn4C)c3c2)c2ccc(C(F)(F)F)cc21 (single isomer, unassigned) [Example 604] | 2300 nM | 19100 nM
CN(C(=O)c1cc2c(cc1F)nc(N)c1c2cnn1C)[C@@H]1COCc2c1ccc(F)c2F (single isomer, unassigned) [Example 605] | 285 nM | 26400 nM
CN(C(=O)c1cc2c(cc1F)nc(N)c1c2cnn1C)[C@@H]1COCc2cc(C(F)(F)F)cnc21 (single isomer, unassigned) [Example 606] | 724 nM | 13500 nM
CN(C(=O)c1ccc2nc(N)c3c(c2c1)COC3)[C@H]1COCc2cc(Br)ccc21 (single isomer, unassigned) [Example 609] | 598 nM | 7800 nM
CN(C(=O)c1ccc2nc(N)c3c(c2c1)COC3)[C@H]1COc2cc(C3CC3)ccc21 (single isomer, unassigned) [Example 611] | 1690 nM | 10500 nM
CN(C(=O)c1ccc2nc(N)c3c(c2c1)COC3)[C@H]1COc2cc(C3=CCOCC3)ccc21 (single isomer, unassigned) [Example 613] | 860 nM | 2630 nM
CN(C(=O)c1ccc2nc(N)c3cnn(C)c3c2c1)[C@H]1COCc2cc(-c3cnn(C(F)(F)F)c3)ccc21 (single isomer, unassigned) [Example 664] | 319 nM | 1770 nM
CN(C(=O)c1cc2c3c(c(N)nc2cc1F)COC3)[C@H]1COCc2cc(-c3ccc(C(F)(F)F)cc3)ccc21 (single isomer, unassigned) [Example 665] | 875 nM | 2510 nM
CN(C(=O)c1ccc2nc(N)c3cnn(C)c3c2c1)[C@H]1COCc2cc(-c3ccc(C(F)(F)F)cc3)ccc21 (single isomer, unassigned) [Example 670] | 536 nM | 1120 nM
CCN(C(=O)c1cc2c(cn1)nc(N)c1cnn(C)c12)C1COc2cc(C(F)(F)F)ccc21 (stereo in doubt) [Example 238, 4-amino-N-ethyl-1-methyl-N-((3S)-6-(trifluoromethyl)-2,3-dihydro-1-benzofuran-3-yl)-1H-pyrazolo[4,3-c][1,7]naph-thyridine-8-carboxamide] | 215 nM | 13000 nM

Compounds with a lower IC50 (HCT116 MTAP null cells), results first:

IC50 (HCT116 MTAP null cells) | IC50 (HCT116 WT cells) | SMILES
26 nM | 1600 nM | CN(C(=O)c1cc2c3c(c(N)nc2cc1F)COC3)[C@@H]1COCc2cc(S(C)(=O)=O)ccc21 (single isomer, unassigned) [Example 591]
21 nM | 1020 nM | C[C@H]1OCc2c1c(N)nc1cc(F)c(C(=O)N(C)[C@@H]3COCc4cc(S(C)(=O)=O)ccc43)cc21 (single isomer, unassigned) [Example 592]
5 nM | 201 nM | Cn1ncc2c(N)nc3ccc(C(=O)N(CC4CC4)[C@@H]4COCc5nc(C(F)(F)F)ccc54)cc3c21 (single isomer, unassigned) [Example 593]
5 nM | 275 nM | CN(C(=O)c1cc2c(cc1F)nc(N)c1cnn(C)c12)[C@@H]1COCc2cc(C#N)ccc21 (single isomer, unassigned) [Example 595]
15 nM | 795 nM | CN(C(=O)c1cc2c(cc1F)nc(N)c1cnn(C)c12)[C@@H]1COCc2c1ccc(F)c2F (single isomer, unassigned) [Example 597]
64 nM | 3820 nM | CN(C(=O)c1cc2c(cc1F)nc(N)c1cnn(C)c12)[C@@H]1COCc2cc(C(F)(F)F)cnc21 (single isomer, unassigned) [Example 599]
10 nM | 226 nM | CN(C(=O)c1cc2c(cc1F)nc(N)c1cnn(C)c12)[C@@H]1COCc2cc(S(C)(=O)=O)ccc21 (single isomer, unassigned) [Example 600]
21 nM | 2100 nM | C[C@H]1OC[C@@H](N(C)C(=O)c2ccc3nc(N)c4c(cnn4C)c3c2)c2ccc(C(F)(F)F)cc21 (single isomer, unassigned) [Example 601]
21 nM | 825 nM | Cn1ncc2c3cc(C(=O)N(CC4CC4)[C@@H]4COCc5nc(C(F)(F)F)ccc54)c(F)cc3nc(N)c21 (single isomer, unassigned) [Example 607]
26 nM | 1040 nM | CN(C(=O)c1ccc2nc(N)c3c(c2c1)COC3)[C@@H]1COCc2cc(Br)ccc21 (single isomer, unassigned) [Example 608]
108 nM | 5510 nM | CN(C(=O)c1ccc2nc(N)c3c(c2c1)COC3)[C@@H]1COc2cc(C3CC3)ccc21 (single isomer, unassigned) [Example 610]
33 nM | 2640 nM | CN(C(=O)c1ccc2nc(N)c3c(c2c1)COC3)[C@@H]1COc2cc(C3=CCOCC3)ccc21 (single isomer, unassigned) [Example 612]
64 nM | 3490 nM | CN(C(=O)c1ccc2nc(N)c3cnn(C)c3c2c1)[C@@H]1CCc2cc(-c3cnn(C)c3)ccc21 (single isomer, unassigned) [Example 623]
75 nM | 6510 nM | CN(C(=O)c1ccc2nc(N)c3cnn(C)c3c2c1)[C@H]1CCc2nc(-c3cnn(C)c3)ccc21 (single isomer, unassigned) [Example 624]
10 nM | 922 nM | CN(C(=O)c1ccc2nc(N)c3cnn(C)c3c2c1)[C@@H]1COCc2cc(-c3cnn(C(F)(F)F)c3)ccc21 (single isomer, unassigned) [Example 663]
22 nM | 1100 nM | CN(C(=O)c1cc2c3c(c(N)nc2cc1F)COC3)[C@@H]1COCc2cc(-c3ccc(C(F)(F)F)cc3)ccc21 (single isomer, unassigned) [Example 666]
16 nM | 1000 nM | CN(C(=O)c1ccc2nc(N)c3cnn(C)c3c2c1)[C@@H]1COCc2cc(-c3ccc(C(F)(F)F)cc3)ccc21 (single isomer, unassigned) [Example 669]
168 nM | 7960 nM | Cc1ccc2c(c1)CC[C@H]2N(C)C(=O)c1ccc2nc(N)c3cnn(C)c3c2c1 (single isomer, unassigned) [Example 680]
